From US10800782B2, “Inhibitors of cellular metabolic processes” (Agios Pharmaceuticals, Inc., priority 2016, dated 2020)

These molecules were tested against T1, MAT2A (Homo sapiens, UniProt P31153) (assay: MAT2A biochemical assay (colorimetric inorganic phosphate detection, PiColorLock)). Settings: recombinant His6-tagged MAT2A 1 μg/ml; 60 minutes preincubation at 25° C.; L-Met 80 μM, ATP 100 μM; 60 minutes reaction; read at 623 nm; read-out: MAT2A Inhibition Score.
T1 construct: His6; made in house; host or cells: SF9 insect cells
Method: In the reaction catalyzed by MAT2A enzyme, L-Met and ATP were converted to SAM, inorganic phosphate, and inorganic diphosphate. […] The concentration of malachite green phosphomolybdate produced in the detection reaction is thus directly related to the quantity of product produced by the MAT2A enzyme. Multiple commercial kits exist for this method of phosphate detection and quantification, such as PiColorLock Gold (Innova Biosciences). Typical reaction was performed in 50 μl final volume, containing buffer (Tris, pH 8.0, 50 mM KCl, 15 mM MgCl2, 300 uM EDTA, bovine serum albumin at 0.005% w/v) and 1 μg/ml MAT2A. Compounds were added in 1 μl of DMSO at the desired concentration; a typical dose response curve contained ten points with three-fold dilution between compound concentrations. […] The reaction was allowed to proceed for 60 minutes at room temperature then halted by the addition of 13 μl of PiColor Lock reagent. After a further 5 minutes of incubation at room temperature, […] of PiColor Stabilizer was added and the reactions were further incubated at 25° C. for 25 minutes. […] Recombinant MAT2A protein was expressed in SF9 insect cells and purified by metal chelate affinity chromatography, using methods well known in the art. After expression of His6-tagged MAT2A cells were disrupted by 4 passes through an M-Yl 10 Micro fluidizer (Microfluidics) set to 500 psi, and then centrifuged at 22,000 rcf for 20 min at 4° C. The supernatant was harvested and loaded at 15 cm/h on a Histrap FF 5*1 ml column (GE) which was equilibrated with 50 mM Tris, 500 mM NaCl, pH7.4. Host cell contaminants were removed by washing the column with equilibration buffer followed by equilibration buffer containing 20 mM imidazole and 60 mM imidazole to baseline. MAT2A protein was eluted by the addition of buffer containing 250 mM imidazole, dialized into 50 mM NaCl, 50 mM Tris, pH 7.4, flash frozen in liquid nitrogen, and stored at −80° C. until use.

T1 sequence (P31153 whole entry): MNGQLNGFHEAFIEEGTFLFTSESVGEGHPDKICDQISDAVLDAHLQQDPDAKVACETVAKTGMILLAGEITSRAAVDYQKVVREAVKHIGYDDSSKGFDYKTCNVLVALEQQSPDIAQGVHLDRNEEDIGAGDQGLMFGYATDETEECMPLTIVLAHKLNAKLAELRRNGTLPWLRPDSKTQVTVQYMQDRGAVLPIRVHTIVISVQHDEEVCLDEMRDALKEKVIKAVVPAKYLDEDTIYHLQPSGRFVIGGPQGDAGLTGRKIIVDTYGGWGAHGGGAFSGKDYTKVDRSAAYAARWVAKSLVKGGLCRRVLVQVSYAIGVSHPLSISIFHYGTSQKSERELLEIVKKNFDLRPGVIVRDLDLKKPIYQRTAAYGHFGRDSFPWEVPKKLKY

| IC50 | Structure (SMILES) |
| --- | --- |
| < 100 nM | Cc1[nH]c2c(-c3ccccc3)c(-c3ccccc3)nn2c(=O)c1-c1ccc(O)c(O)c1 [Compound 260, 6-(3,4-dihydroxyphenyl)-5-methyl-2,3-diphenylpyrazolo[1,5-a]pyrimidin-7(4H)-one] |
| < 100 nM | NCc1[nH]c2c(-c3ccccc3)c(-c3ccccc3)nn2c(=O)c1-c1ccc2c(c1)OCCO2 [Compound 223, 5-(aminomethyl)-6-(2,3-dihydrobenzo[b][1,4]dioxin-6-yl)-2,3-diphenylpyrazolo[1,5-a]pyrimidin-7(4H)-one] |
| < 100 nM | COc1ccc(-c2c(Nc3ccnc(OC)n3)[nH]c3c(C4=CCCCC4)c(-c4ccccc4)nn3c2=O)cc1 [Compound 156, 3-cyclohexenyl-6-(4-methoxyphenyl)-5-(2-methoxypyrimidin-4-ylamino)-2-phenyl-pyrazolo[1,5-a]pyrimidin-7(4H)-one] |
| 1000 to 10000 nM | O=C(NCc1cc[nH]n1)c1[nH]c2c(-c3ccccc3)c(-c3ccccc3)nn2c(=O)c1-c1ccc2ncccc2c1 [Compound 328, N-((1H-pyrazol-3-yl)methyl)-7-oxo-2,3-diphenyl-6-(quinolin-6-yl)-4,7-dihydropyrazolo[1,5-a]pyrimidine-5-carboxamide] |
| < 100 nM | Cc1[nH]c2c(-c3ccccc3)c(-c3cc[nH]n3)nn2c(=O)c1-c1ccc2ncccc2c1 [Compound 280, 5-methyl-3-phenyl-2-(1H-pyrazol-3-yl)-6-(quinolin-6-yl)pyrazolo[1,5-a]pyrimidin-7(4H)-one] |
| < 100 nM | COc1ccc(-c2c(Nc3ccccn3)[nH]c3c(-c4ccccc4)c(-c4ccccn4)nn3c2=O)cc1 [Compound 180, 6-(4-methoxyphenyl)-3-phenyl-2-(pyridin-2-yl)-5-(pyridin-2-ylamino)pyrazolo[1,5-a]pyrimidin-7(4H)-one] |
| < 100 nM | COc1ccc(-c2c(Nc3cc(N)[nH]n3)[nH]c3c(-c4ccccc4)c(-c4ccccc4)nn3c2=O)cc1 [Compound 186, 5-((5-amino-1H-pyrazol-3-yl)amino)-6-(4-methoxyphenyl)-2,3-diphenylpyrazolo[1,5-a]pyrimidin-7(4H)-one] |
| < 100 nM | COc1ccc(-c2c(Nc3ncnc(O)n3)[nH]c3c(-c4ccccc4)c(-c4ccccc4)nn3c2=O)cc1 [Compound 136, 5-((4-hydroxy-1,3,5-triazin-2-yl)amino)-6-(4-methoxyphenyl)-2,3-diphenylpyrazolo[1,5-a]pyrimidin-7(4H)-one] |
| 100 to 1000 nM | Cc1c(-c2ccc3ncccc3c2)c(=O)n2nc(-c3ccccc3)c(-c3ccccc3)c2n1C [Compound 318, 4,5-dimethyl-2,3-diphenyl-6-(quinolin-6-yl)pyrazolo[1,5-a]pyrimidin-7(4H)-one] |
| < 100 nM | COc1ccc(-c2c(CN)[nH]c3c(C4=CCCCC4)c(-c4ccccc4)nn3c2=O)cc1 [Compound 232, 5-(aminomethyl)-3-(cyclohex-1-en-1-yl)-6-(4-methoxyphenyl)-2-phenylpyrazolo[1,5-a]pyrimidin-7(4H)-one] |
| < 100 nM | COc1ccc(-c2c(Nc3cnc(C#N)cn3)[nH]c3c(-c4ccccc4)c(-c4ccccc4)nn3c2=O)cc1 [Compound 129, 5-(6-(4-methoxyphenyl)-7-oxo-2,3-diphenyl-4,7-dihydropyrazolo[1,5-a]pyrimidin-5-ylamino)pyrazine-2-carbonitrile] |
| < 100 nM | CCOc1ccc(-c2c(C)[nH]c3c(-c4ccccc4)c(-c4ccccc4)nn3c2=O)cc1 [Compound 210, 6-(4-ethoxyphenyl)-5-methyl-2,3-diphenylpyrazolo[1,5-a]pyrimidin-7(4H)-one] |
| < 100 nM | COc1ccc(-c2c(Nc3cccnc3)[nH]c3c(-c4ccccc4)c(-c4ccccc4)nn3c2=O)cc1 [Compound 103, 6-(4-methoxyphenyl)-2,3-diphenyl-5-(pyridin-3-ylamino)pyrazolo[1,5-a]pyrimidin-7(4H)-one] |
| < 100 nM | O=c1c(-c2ccc3ncccc3c2)c(Nc2ccon2)[nH]c2c(C3=CCCCC3)c(-c3ccccc3)nn12 [Compound 176, 3-cyclohexenyl-5-(isoxazol-3-ylamino)-2-phenyl-6-(quinolin-6-yl)pyrazolo[1,5-a]pyrimidin-7(4H)-one] |
| 1000 to 10000 nM | COc1ccc(-c2c(Oc3cccnn3)[nH]c3c(-c4ccccc4)c(-c4ccccc4)nn3c2=O)cc1 [Compound 354, 6-(4-methoxyphenyl)-2,3-diphenyl-5-(pyridazin-3-yloxy)pyrazolo[1,5-a]pyrimidin-7(4H)-one] |
| < 100 nM | CCNC(=O)c1nnc(Nc2[nH]c3c(-c4ccccc4)c(-c4ccccc4)nn3c(=O)c2-c2ccc3ncccc3c2)o1 [Compound 199, N-ethyl-5-((7-oxo-2,3-diphenyl-6-(quinolin-6-yl)-4,7-dihydropyrazolo[1,5-a]pyrimidin-5-yl)amino)-1,3,4-oxadiazole-2-carboxamide] |
| 100 to 1000 nM | Cc1[nH]c2c(N3CCCCC3)c(-c3ccccc3)nn2c(=O)c1-c1ccc(N)cc1 [Compound 307, 6-(4-aminophenyl)-5-methyl-2-phenyl-3-(piperidin-1-yl)pyrazolo[1,5-a]pyrimidin-7(4H)-one] |
| < 100 nM | COc1ccc(-c2c(Nc3cccnn3)[nH]c3c(-c4ccccc4)c(-c4ccccc4)nn3c2=O)cc1 [Compound 101, 6-(4-methoxyphenyl)-2,3-diphenyl-5-(pyridazin-3-ylamino)pyrazolo[1,5-a]pyrimidin-7(4H)-one] |
| < 100 nM | COc1ccc(-c2c(Nc3nonc3N)[nH]c3c(-c4ccccc4)c(-c4ccccc4)nn3c2=O)cc1 [Compound 149, 5-((4-amino-1,2,5-oxadiazol-3-yl)amino)-6-(4-methoxyphenyl)-2,3-diphenylpyrazolo[1,5-a]pyrimidin-7(4H)-one] |
| 1000 to 10000 nM | Cc1[nH]c2c(-c3ccccc3)c(-c3cccc(Cl)c3)nn2c(=O)c1-c1ccc2ncccc2c1 [Compound 346, 2-(3-chlorophenyl)-5-methyl-3-phenyl-6-(quinolin-6-yl)pyrazolo[1,5-a]pyrimidin-7(4H)-one] |
| < 100 nM | COc1cc(-c2c(C)[nH]c3c(-c4ccccc4)c(-c4ccccc4)nn3c2=O)ccc1O [Compound 259, 6-(4-hydroxy-3-methoxyphenyl)-5-methyl-2,3-diphenylpyrazolo[1,5-a]pyrimidin-7(4H)-one] |
| 100 to 1000 nM | COc1ccc(-c2c(Nc3ccccc3)[nH]c3c(-c4ccccc4)c(-c4ccccc4)nn3c2=O)cc1 [Compound 356, 6-(4-methoxyphenyl)-2,3-diphenyl-5-(phenylamino)pyrazolo[1,5-a]pyrimidin-7(4H)-one] |
| < 100 nM | COc1ccc(-c2c(Nc3ccc([N+](=O)[O-])cn3)[nH]c3c(-c4ccccc4)c(-c4ccccc4)nn3c2=O)cc1 [Compound 107, 6-(4-methoxyphenyl)-5-((5-nitropyridin-2-yl)amino)-2,3-diphenylpyrazolo[1,5-a]pyrimidin-7(4H)-one] |
| < 100 nM | COc1ccc(-c2c(Nc3cccnn3)[nH]c3c(C4=CCCCC4)c(-c4ccccc4)nn3c2=O)cc1 [Compound 157, 3-(cyclohex-1-en-1-yl)-6-(4-methoxyphenyl)-2-phenyl-5-(pyridazin-3-ylamino)pyrazolo[1,5-a]pyrimidin-7(4H)-one] |
| < 100 nM | COc1ccc(-c2c(Nc3ccc(Cl)nn3)[nH]c3c(-c4ccccc4)c(-c4ccccc4)nn3c2=O)cc1 [Compound 125, 5-((6-chloropyridazin-3-yl)amino)-6-(4-methoxyphenyl)-2,3-diphenylpyrazolo[1,5-a]pyrimidin-7(4H)-one] |
| 100 to 1000 nM | O=c1c(-c2ccc3ncccc3c2)c(Cn2cccn2)[nH]c2c(-c3ccccc3)c(-c3ccccc3)nn12 [Compound 320, 5-((1H-pyrazol-1-yl)methyl)-2,3-diphenyl-6-(quinolin-6-yl)pyrazolo[1,5-a]pyrimidin-7(4H)-one] |
| < 100 nM | CCOC(=O)c1ncsc1Nc1[nH]c2c(-c3ccccc3)c(-c3ccccc3)nn2c(=O)c1-c1ccc(OC)cc1 [Compound 150, ethyl 5-((6-(4-methoxyphenyl)-7-oxo-2,3-diphenyl-4,7-dihydropyrazolo[1,5-a]pyrimidin-5-yl)amino)thiazole-4-carboxylate] |
| < 100 nM | COc1ccc(-c2c(CO)[nH]c3c(-c4ccccc4)c(-c4ccccc4)nn3c2=O)cc1 [Compound 221, 5-(hydroxymethyl)-6-(4-methoxyphenyl)-2,3-diphenylpyrazolo[1,5-a]pyrimidin-7(4H)-one] |
| < 100 nM | Cc1[nH]c2c(-c3ccccc3)c(-c3cc[nH]c3)nn2c(=O)c1-c1ccc2ncccc2c1 [Compound 252, 5-methyl-3-phenyl-2-(1H-pyrrol-3-yl)-6-(quinolin-6-yl)pyrazolo[1,5-a]pyrimidin-7(4H)-one] |

| Structure (SMILES) | IC50 |
| --- | --- |
| O=c1c(-c2ccc3nccnc3c2)c(Nc2ccn[nH]2)[nH]c2c(C3=CCCCC3)c(-c3ccccc3)nn12 [Compound 191, 5-((1H-pyrazol-5-yl)amino)-3-(cyclohex-1-en-1-yl)-2-phenyl-6-(quinoxalin-6-yl)pyrazolo[1,5-a]pyrimidin-7(4H)-one] | < 100 nM |
